The experiment deals with T1, 12-LOX (Homo sapiens, UniProt P18054).
T1 construct: His6 (N); made in house
T1 sequence (P18054 1-663): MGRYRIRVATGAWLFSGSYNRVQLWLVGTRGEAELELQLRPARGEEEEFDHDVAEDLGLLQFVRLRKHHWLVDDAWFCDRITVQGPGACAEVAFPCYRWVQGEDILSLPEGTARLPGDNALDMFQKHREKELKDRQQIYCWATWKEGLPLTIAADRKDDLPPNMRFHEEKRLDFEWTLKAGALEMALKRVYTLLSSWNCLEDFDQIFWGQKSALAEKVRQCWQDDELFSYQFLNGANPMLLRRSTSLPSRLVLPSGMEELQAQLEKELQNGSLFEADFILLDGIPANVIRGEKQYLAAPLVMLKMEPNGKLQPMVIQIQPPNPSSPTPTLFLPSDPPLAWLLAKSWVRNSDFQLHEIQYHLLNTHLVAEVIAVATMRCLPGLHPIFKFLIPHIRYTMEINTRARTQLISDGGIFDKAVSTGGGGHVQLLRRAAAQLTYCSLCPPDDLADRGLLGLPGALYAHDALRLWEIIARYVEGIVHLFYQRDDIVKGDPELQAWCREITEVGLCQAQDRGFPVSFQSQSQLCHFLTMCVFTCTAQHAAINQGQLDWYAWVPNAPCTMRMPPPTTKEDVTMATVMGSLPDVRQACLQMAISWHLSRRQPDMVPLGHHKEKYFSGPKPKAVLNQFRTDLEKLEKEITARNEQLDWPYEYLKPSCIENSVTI
The experiment can be described thus: Lipoxygenase UV-Vis assay, 12-LOX. As to conditions: estimated from one inhibitor point at 20 µM; 10 µM AA. It is filed as biochemical. The procedure: Human leukocyte 5-lipoxygenase (5-LOX) was expressed as a non-tagged protein and used as a crude ammonium sulfate protein fraction, as published previously, [20].
The reactions were initiated by adding 200 nM 15-LOX-2, 30 nM 12-LOX, 40 nM 15-LOX-1, or approximately 100–300 nM (5–10 µL) of 5-LOX crude extract to a cuvette with 2 mL reaction buffer, constantly stirred using a magnetic stir bar at room temperature (22°C). Reaction buffers used for various LOX isozymes were as follows: 25 mM HEPES (pH 7.3), 0.3 mM CaCl2, 0.1 mM EDTA, 0.2 mM ATP, 0.01% Triton X-100, 10 µM AA for the crude, ammonium sulfate precipitated 5-LOX; and 25 mM HEPES (pH 7.5), 0.01% Triton X-100, 10 µM AA for 15-LOX-2, 15-LOX-1, and 12-LOX. The substrate concentration was quantitatively determined by allowing the enzymatic reaction to go to completion in the presence of 15-LOX-2. […] The data were then plotted against inhibitor concentration, followed by a hyperbolic saturation curve fit (assuming total enzyme concentration [E]≪IC50). […] All inhibitors were stored at −20°C in DMSO. NDGA was utilized as positive control for the selectivity assays for the various LOX isozymes.

In the case of `Clc1ccc(-c2nnc(C3CCCCC3)o2)cc1` [MLS000545091], the IC50 was more than 100 µM.

For `Cc1ccc(CSc2ncn(-c3ccccc3)n2)cc1` [MLS000536924], the IC50 is more than 100 µM.
